This note sets out measurements from patent publication US6153640A, “Benzo[3,4]cyclobuta[1,2-c]pyrrole compounds” (Adir et Compagnie, priority 1999, dated 2000).

As usually defined, the Ki is the dissociation constant of the complex between target and ligand, obtained from inhibition or displacement.

The target of one assay is T1, serotonin reuptake site (Rattus norvegicus, UniProt P31652).
T1 construct: The membranes are prepared from rat frontal cortex; from tissue; host or cells: rat frontal cortex membranes
Nature of the assay: Affinity for serotonin reuptake sites ([3H]-paroxetine competition binding). The following applies: [3H]-paroxetine 1.0 nM, rat frontal cortex membranes, 2 hours at 25° C., pH 7.4; read-out: pKi (-log Ki), affinity for serotonin reuptake sites (converted). The protocol: The incubation buffer contains […] TRIS-HCl (pH 7.4), 120 mM NaCl and 5 mM KCl. The non-specific binding is determined using 10 μM citalopram. At the end of the incubation, the incubation medium is filtered and washed three times with 5 ml of cooled buffer. The radioactivity retained on the filters is determined by liquid scintillation counting. The binding isotherms are analysed by non-linear regression to determine the IC50 values. Those values are converted into a dissociation constant (Ki) using the Cheng-Prusoff equation: […]
The results are expressed in pKi (-log Ki).

In assay [1] the test system is levels of serotonin, dopamine and noradrenaline in cingulate frontal cortex. Nature of the assay: Microdialysis experiment in the rat (frontal cortex). Format: in vivo. To be noted: 10 mg/kg subcutaneous, baseline defined as 0%. As for the experimental part:
Rats are anaesthetised with pentobarbital (60 mg/kg i.p.). They are placed in a Kopf stereotaxic device and the cannula guide is implanted in the cingulate frontal cortex in accordance with the coordinates described in the Paxinos and Watson atlas (1982) as follows: AP=+2.2; L=±0.6; DV=-0.2. The rats are placed in separate cages and are not used in dialysis until 5 days later. […] The probe is perfused at a flow rate of 1 μl/min. with a solution of 147.2 mM NaCl, 4 mM KCl and 2.3 mM CaCl2 adjusted to pH 7.3 with a phosphate buffer (0.1 M). Two hours after implantation, samples are collected every 20 minutes for 4 hours. Three baseline samples are taken before administration of the products to be tested. The rats are left in their individual cages for the whole of the experiment. When the experiment is finished, the rats are decapitated and the brain is removed and frozen in isopentane. Sections of a thickness of 100 μm are cut and stained with cresyl violet, which allows verification of the location of the probes. The simultaneous quantification of dopamine, norepinephrine and serotonin is carried out as follows: 20 μl of dialysis sample are diluted with 20 μl of mobile phase (NaH2 PO4 : 75 mM; EDTA: 20 μM; sodium 1-decanesulphonate: 1 mM; methanol: 17.5%; triethylamine: 0.01%; pH: 5.70) and 33 μl are analysed by HPLC with a reverse phase column thermostatically maintained at 45° C. and are quantified by means of a coulometric detector. The potential of the first electrode of the detector is set at -90 mV (reduction) and the second at +280 mV (oxidation). The mobile phase is injected with a pump at a flow rate of 2 ml/min. The sensitivity limits for dopamine, norepinephrine and serotonin are 0.55 fmole per sample. All the products of the invention are injected subcutaneously in a volume of 1.0 ml/kg. The products are dissolved in distilled water to which a few drops of lactic acid have been added if necessary.

In a further assay the test system is male CD mice. Nature of the assay: Test of aggressiveness in isolated mice. The assay is classed as in vivo. To be noted: Mus musculus, ip, 0.5 h; i.p.; treatment 30 minutes before pairing; 3 minutes observation; read-out: Inhibitory Dose 50 of the number or duration of the attacks. From the text: This test allows the evaluation of the intraspecies anti-aggressive activity of a product in mice that have been kept in isolation for several months.
The test uses male CD mice (Charles River) weighing from 22 to 25 g when they arrive at the animal house. On their arrival, the animals are isolated in individual cages made of opaque black polycarbonate (23×14×13 cm) with a grill lid, and are housed for a prolonged period (approximately six months) in the experimentation room.
The selection of aggressive pairs of mice that will be used for an extended period in the study commences after the animals have been isolated for one month. Once or twice per week a mouse from another cage (intruder) is placed in the cage of a (resident) mouse and the two animals are observed to see if they attack one another (sniffing, pursuing, nicking, biting) during that trial. At the end of the trial (maximum duration 10 minutes), each mouse is isolated again in its own cage. If attacks have occurred, the same pair will be tested again in the next trial; if there have been no attacks, each mouse of that pair will be placed in the presence of another mouse in the subsequent trial. […]
The test takes place once a week. […] The latent period (in seconds) of the first attack and the number and total duration (in seconds) of the attacks are recorded. […]

SMILES strings stand for the structures.

T1 sequence (P31652 whole entry): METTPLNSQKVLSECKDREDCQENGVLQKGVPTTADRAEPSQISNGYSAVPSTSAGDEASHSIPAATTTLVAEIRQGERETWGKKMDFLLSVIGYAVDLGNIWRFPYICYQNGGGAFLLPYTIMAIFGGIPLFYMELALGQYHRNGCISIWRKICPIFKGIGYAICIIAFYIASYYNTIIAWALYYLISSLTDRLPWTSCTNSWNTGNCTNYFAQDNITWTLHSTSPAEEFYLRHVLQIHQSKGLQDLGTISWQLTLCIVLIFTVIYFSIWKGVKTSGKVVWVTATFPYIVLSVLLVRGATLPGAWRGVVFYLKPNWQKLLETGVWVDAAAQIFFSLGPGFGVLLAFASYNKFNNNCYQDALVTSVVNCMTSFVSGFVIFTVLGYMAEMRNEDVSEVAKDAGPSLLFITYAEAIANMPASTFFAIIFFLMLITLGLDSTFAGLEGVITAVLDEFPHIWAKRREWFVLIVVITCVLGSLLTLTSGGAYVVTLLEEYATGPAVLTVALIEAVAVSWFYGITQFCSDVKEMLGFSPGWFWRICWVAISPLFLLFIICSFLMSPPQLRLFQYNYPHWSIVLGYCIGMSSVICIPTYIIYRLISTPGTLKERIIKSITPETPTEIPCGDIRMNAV

`c1ccc2c(c1)[C@@H]1CNC[C@]21COc1ccc2c(c1)OCO2` (relative stereo) [Example 1, cis-3a-[(3,4-Methylenedioxyphenoxy)methyl]-2,3,3a,7b-tetrahydro-1H-benzo[3,4]cyclobuta[1,2-c]pyrrole]: the Ki at serotonin reuptake site is 12.6 nM. Further, in assay [1], the “increase in the level of dopamine, maximum % of the effect compared with the baseline level” value is given as 54.8%±6.4; the “increase in the level of noradrenaline, maximum % of the effect compared with the baseline level” value is on record as 96.4%±7.8; the “increase in the level of serotonin, maximum % of the effect compared with the baseline level” value is 226.3%±20.1. The ED50 with male CD mice is below 5 mg/kg.
